Assay results: BindingDB's records for doi:10.1016/S0960-894X(97)00434-4 (1997)

How the values were obtained:
[1] = Compound was tested for the inhibition of Escherichia coli glutamyl-t-RNA synthetase
[2] = Compound was tested for the inhibition of aminoacyl tRNA Synthetase

Structure (SMILES) | Ki [1] [µM] | Ki [2] [µM]
NC(CCC(=O)O)C(=O)OC[C@H]1OC(O)[C@H](O)[C@@H]1O (stereo not given in full) | 500 | –
NC(CCC(=O)O)C(=O)OC[C@@H]1CCCN1 (stereo not given in full) | 11400 | –
NC(CCC(=O)O)C(=O)OC[C@H]1CCCN1 (stereo not given in full) | 380 | –
NC(CCC(=O)O)C(=O)OC[C@H]1C[C@@H](O)C[C@@H](CO)N1 (stereo partly drawn) [4-ammonio-5-{[(2R,4S,6S)-4-hydroxy-6-(hydroxymethyl)piperidin-2-yl]methoxy}-5-oxopentanoate] | 20 | –
COc1cc(CNC(=O)CCCC/C=C/C(C)C)ccc1O [Zostrix] | – | 42
